Measured values published in PubChem BioAssay (NCI).
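Briefly, cells in 96-well plates were exposed to five compound concentrations for 48 h, and endpoints were estimated by linear interpolation. GI50 = concentration required for 50% inhibition of growth. The concentration for full growth arrest is given as TGI.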

How the values were obtained:
Assay in all cases: NCI tumour cell line growth inhibition, 48 h
[1] = tested on: CCRF-CEM leukemia
[2] = tested on: K-562 leukemia
[3] = tested on: MDA-MB-435
[4] = tested on: OVCAR-3 ovarian
[5] = tested on: OVCAR-5 ovarian
[6] = tested on: SF-268 CNS
[7] = tested on: SN12C renal
[8] = tested on: SNB-19 CNS
[9] = tested on: TK-10 renal
[10] = tested on: UO-31 renal
[11] = tested on: KM12 colon
[12] = tested on: MOLT-4 leukemia
[13] = tested on: SF-539 CNS

| Compound | TGI [1] [µM] | TGI [2] [µM] | TGI [3] [µM] | TGI [4] [µM] | TGI [5] [µM] | TGI [6] [µM] | TGI [7] [µM] | TGI [8] [µM] | TGI [9] [µM] | TGI [10] [µM] | TGI [11] [µM] | TGI [12] [µM] | TGI [13] [µM] | GI50 [1] [µM] | GI50 [2] [µM] | GI50 [11] [µM] | GI50 [12] [µM] | GI50 [6] [µM] | GI50 [13] [µM] |
| --- | --- | --- | --- | --- | --- | --- | --- | --- | --- | --- | --- | --- | --- | --- | --- | --- | --- | --- | --- |
| Nc1nc(N)c2c(-c3ccccc3)ccnc2n1 | > 100 | > 100 | > 100 | > 100 | > 100 | > 100 | > 100 | > 100 | > 100 | > 100 |  |  |  |  |  |  |  |  |  |
| Cc1cc(N(CCC#N)CCC#N)ccc1/C=C(\N=[N+]=[N-])C(=O)NC(=O)COc1ccccc1 | > 100 | > 100 |  | > 100 | > 100 | > 100 | > 100 | > 100 | > 100 | > 100 | > 100 | > 100 | > 100 |  |  |  |  |  |  |
| C/C(CC(=O)Nc1cccc([N+](=O)[O-])c1)=N/NC(N)=S | > 100 | > 100 |  | > 100 | > 100 | > 100 |  |  | > 100 | > 100 | > 100 | > 100 | > 100 |  |  |  |  |  |  |
| C=C1C(=O)O[C@H]2C1C[C@H](O)/C(C)=C/CC[C@@]1(C)O[C@H]21 (stereo not given in full) | 13.6 | > 100 | 37.3 |  | 33.9 | 74.5 | 33.8 | > 100 | 29.9 | 28.6 | 30.1 |  |  |  |  |  |  |  |  |
| CN(C)C1(N(C)C)Oc2c(c(=O)n(C)c(=O)n2C)C(c2ccc(F)cc2)C1(F)F (stereo not given) | > 100 |  | > 100 | > 100 | > 100 | > 100 |  | > 100 | > 100 | > 100 | > 100 |  |  |  |  |  |  |  |  |
| N#C/C(=C\c1ccccc1F)C(=O)c1ccccc1 | > 100 | > 100 |  | > 100 | > 100 | > 100 | > 100 | > 100 | > 100 | > 100 | > 100 | > 100 | > 100 |  |  |  |  |  |  |
| CCOC(=O)C1=C(C)C2C3C(=O)OC(=O)C3C1(C)C1C(=O)OC(=O)C21 (stereo not given) | > 100 | > 100 |  | > 100 |  | > 100 | > 100 | > 100 | > 100 | > 100 | > 100 | > 100 | > 100 |  |  |  |  |  |  |
| CC1=NC(=O)CNN1C1=NNC2(C(=O)N1)c1ccccc1-c1ccccc12 | > 100 | > 100 | > 100 | > 100 | > 100 | > 100 | > 100 | > 100 | > 100 | > 100 |  |  | > 100 |  |  |  |  |  |  |
| CC(C)(Cl)C(Cl)CC/C(CBr)=C(\Cl)CBr (stereo not given) | 0.325 |  | 5.34 | 6.81 | 5.19 | 7.67 | 6.15 | 29.2 | 3.82 | 8.86 | 6.08 | 2.32 | 5.53 |  |  |  |  |  |  |
| Cc1ccc2nc(-c3nccn3C)cc(C(=O)NC(C)CN(C)C)c2c1 (stereo not given) |  |  | > 100 |  | > 100 | > 100 | > 100 | > 100 | > 100 | > 100 | > 100 |  | > 100 |  |  |  |  |  |  |
| O=C(O)C1Cc2[nH]c3ccccc3c2C2CCCC12 (stereo not given) | > 100 | > 100 |  | > 100 | > 100 | > 100 | > 100 | > 100 | > 100 | > 100 | > 100 | > 100 | > 100 |  |  |  |  |  |  |
| Cc1nc2c(n1Cc1ccc(F)cc1)C(=O)c1ccccc1C2=O | > 100 | 86.9 |  | 48.6 |  | > 100 | > 100 | > 100 | > 100 | > 100 | > 100 | > 100 | > 100 |  |  |  |  |  |  |
| O=S1(=O)OCCOS(=O)(=O)C1(Br)Br | > 100 | > 100 |  | > 100 |  | > 100 | > 100 | > 100 | > 100 | > 100 | > 100 | > 100 | > 100 |  |  |  |  |  |  |
| COc1cc(Cn2c3ccccc3c3cc(C)cc(OC)c32)cc2c1[nH]c1ccccc12 | > 25 | > 25 |  | > 25 | > 25 | > 25 | > 25 | > 25 | > 25 | > 25 | > 25 | > 25 | > 25 | 12 | 9.7 | 10.2 | 8.51 | 17.5 | 9.83 |
| COc1cc2cnc3c4cc(O)ccc4ccc3c2cc1OC | > 100 | > 100 |  | > 100 | > 100 | > 100 | > 100 | > 100 | > 100 | > 100 | > 100 | > 100 | > 100 |  |  |  |  |  |  |
| O=C1Nc2n[nH]c(=S)n2NC12c1ccccc1-c1ccccc12 |  |  | 37.4 | > 100 | > 100 | > 100 | > 100 | > 100 | > 100 | > 100 |  |  | > 100 |  |  |  |  |  |  |
| CN(CCO)c1nc(=O)c2c(n1C1OC(CO)C(O)C(O)C1O)CCCC2 (stereo not given) | > 100 | > 100 |  | > 100 | > 100 | > 100 | > 100 | > 100 | > 100 | > 100 | > 100 | > 100 | > 100 |  |  |  |  |  |  |
| CC(C)OP(=O)(OC(C)C)/C(=N/Nc1ccc([N+](=O)[O-])cc1)NNC(=O)c1ccccc1 | 55.4 | > 100 |  | > 100 | > 100 | > 100 | > 100 | > 100 | > 100 | > 100 | > 100 | 42.2 | > 100 |  |  |  |  |  |  |
| C[C@H]1[C@H](C)CC[C@]2(C(=O)O)CCC3(COC(=O)/C=C/c4ccc(O)cc4)C(=CCC4[C@@]5(C)CC[C@H](O)C(C)(C)C5CC[C@]43C)[C@H]12 (stereo not given in full) | 17.3 | 20.9 |  | 24.5 | 28.6 | 22.5 | 20.8 | 22.5 | 22.3 | 15.6 | 16.3 | 32.4 | 16.5 |  |  |  |  |  |  |
| O=C(/C=C/c1ccc(Cl)cc1)c1nc2ccccc2[nH]1 | 16.6 | 30.7 | 36.2 | 49.1 | > 100 | > 100 | > 100 | > 100 | 70.5 | 24 | 13.3 |  | 50.6 |  |  |  |  |  |  |
| CC1=C(N2CC2)C(=O)C(C)=C(N2CC2)C1=O | 3.3 | 3.92 |  | 0.658 | 3.3 | 1.08 | 1.59 | 8.33 | 1.5 | 0.353 | 1.89 | 13.5 | 0.808 |  |  |  |  |  |  |
| CC(/C=C1\CCC(CN(C)C)C1=O)c1cccc(Br)c1 (stereo not given) | 11.4 | 9.43 |  | 30.8 | 43.8 | 43.7 | 43.3 | 61.2 | 30.6 | 33.2 | 23.9 | 13.3 | 33.3 |  |  |  |  |  |  |
| Cc1ccc(C(CCO)CCO)nc1 | > 100 |  | > 100 | > 100 | > 100 | > 100 | > 100 | > 100 | > 100 | > 100 | > 100 | > 100 | > 100 |  |  |  |  |  |  |
| COc1ccccc1NC(=O)C(=O)C(c1cnc2ccc([N+](=O)[O-])cc2n1)[N+](=O)[O-] (stereo not given) | > 100 | > 100 |  |  | > 100 | > 100 | > 100 | > 100 | > 100 | > 100 | > 100 | > 100 | > 100 |  |  |  |  |  |  |
| O=C(O)CCC1(CCC(=O)O)CCCCCCCCC(CCC(=O)O)(CCC(=O)O)C(=O)C1=O |  | > 100 | > 100 | > 100 | > 100 | > 100 | > 100 | > 100 | > 100 |  | > 100 |  | > 100 |  |  |  |  |  |  |
| N#Cc1c2c(c(Nc3cccc(C(F)(F)F)c3)n3c1nc1ccccc13)CCCC2 |  |  | > 100 | > 100 | 46.6 | 43.1 | 88.8 |  | 44.4 |  | > 100 | > 100 | 31 |  |  |  |  |  |  |
| O=C1NC(NNc2ccccc2)=N/C1=C\c1ccco1 | > 100 |  | 47.6 | 38.1 | > 100 | 75.2 | 49.9 | > 100 | 36.4 | 55.2 | 54.6 | > 100 |  |  |  |  |  |  |  |
| COc1cc2c(c(OC)c1)C(=O)C(=O)C(CC1(C)OCCCO1)=C2 | 4.72 | 6.7 |  | 10.5 | 37.7 | 30.1 | 26.8 | > 53.2 | 17.2 | 25.6 | 29.7 | > 29.9 | 32 |  |  |  |  |  |  |
| Cc1cc2nc3c(C#N)c4c(c(Cl)n3c2cc1C)CCC4 |  |  | 42.5 | 49.7 | 77.8 | 53.3 | 33.8 |  | 70.6 |  | > 100 | > 100 | 49.5 |  |  |  |  |  |  |
